What was measured:
[1] = species: Rattus norvegicus; test: Inhibition of retinal reductase in Sprague-Dawley rat liver microsomes at 100 uM using all-trans retinaldehyde and NADPH by HPLC analysis relative to control
[2] = species: Homo sapiens; test: Inhibition of transglutaminase in human keratinocytes assessed as mean transglutaminase activity level at 9.0 10^-3M in presence of 10 uM retinal relative to retinal alone; assay type: cell-based; set-up: scale not given: the % may be the effect or the level left
[3] = species: Homo sapiens; test: Inhibition of transglutaminase in human keratinocytes assessed as mean transglutaminase activity level at 1.65 10^-7M in presence of 10 uM retinal relative to retinal alone; assay type: cell-based; set-up: scale not given: the % may be the effect or the level left
[4] = species: Homo sapiens; test: Inhibition of transglutaminase in human keratinocytes assessed as mean transglutaminase activity level at 1.1 10^-4M in presence of 10 uM retinal relative to retinal alone; assay type: cell-based; set-up: scale not given: the % may be the effect or the level left
[5] = species: Homo sapiens; test: Inhibition of transglutaminase in human keratinocytes assessed as mean transglutaminase activity level at 8.2 10^-6M in presence of 10 uM retinal relative to retinal alone; assay type: cell-based; set-up: scale not given: the % may be the effect or the level left
[6] = species: Homo sapiens; test: Inhibition of transglutaminase in human keratinocytes assessed as mean transglutaminase activity level at 1.0 10^-3M in presence of 10 uM retinal relative to retinal alone; assay type: cell-based; set-up: scale not given: the % may be the effect or the level left
[7] = species: Homo sapiens; test: Inhibition of transglutaminase in human keratinocytes assessed as mean transglutaminase activity level at 3.0 10^-3M in presence of 10 uM retinal relative to retinal alone; assay type: cell-based; set-up: scale not given: the % may be the effect or the level left
[8] = species: Homo sapiens; test: Inhibition of transglutaminase in human keratinocytes assessed as mean transglutaminase activity level at 4.1 10^-5M in presence of 10 uM retinal relative to retinal alone; assay type: cell-based; set-up: scale not given: the % may be the effect or the level left
[9] = species: Homo sapiens; test: Inhibition of transglutaminase in human keratinocytes assessed as mean transglutaminase activity level at 3.73 10^-4M in presence of 10 uM retinal relative to retinal alone; assay type: cell-based; set-up: scale not given: the % may be the effect or the level left
[10] = species: Homo sapiens; test: Inhibition of transglutaminase in human keratinocytes assessed as mean transglutaminase activity level at 1.23 10^-5M in presence of 10 uM retinal relative to retinal alone; assay type: cell-based; set-up: scale not given: the % may be the effect or the level left
[11] = species: Homo sapiens
Description: Inhibition of transglutaminase in human keratinocytes in presence of 10 uM retinal relative to retinal alone

[12] = species: Homo sapiens; test: Inhibition of transglutaminase in human keratinocytes assessed as mean transglutaminase activity level at 3.29 10^-7M in presence of 10 uM retinal relative to retinal alone; assay type: cell-based; set-up: scale not given: the % may be the effect or the level left
[13] = species: Rattus norvegicus; test: Activation of retinol dehydrogenase in Sprague-Dawley rat liver microsomes assessed as increase in enzyme activity at 100 uM using all-trans retinol and NADP by HPLC analysis relative to control
[14] = species: Homo sapiens; test: Inhibition of transglutaminase in human keratinocytes assessed as mean transglutaminase activity level at 1.47 10^-5M in presence of 10 uM retinal relative to retinal alone; assay type: cell-based; set-up: scale not given: the % may be the effect or the level left
[15] = species: Homo sapiens; test: Inhibition of transglutaminase in human keratinocytes assessed as mean transglutaminase activity level at 5.43 10^-7M in presence of 10 uM retinal relative to retinal alone; assay type: cell-based; set-up: scale not given: the % may be the effect or the level left
[16] = species: Homo sapiens; test: Inhibition of transglutaminase in human keratinocytes assessed as mean transglutaminase activity level at 1.63 10^-6M in presence of 10 uM retinal relative to retinal alone; assay type: cell-based; set-up: scale not given: the % may be the effect or the level left
[17] = species: Homo sapiens; test: Inhibition of transglutaminase in human keratinocytes assessed as mean transglutaminase activity level at 1.2 10^-8M in presence of 10 uM retinal relative to retinal alone; assay type: cell-based; set-up: scale not given: the % may be the effect or the level left
[18] = species: Homo sapiens; test: Inhibition of transglutaminase in human keratinocytes assessed as mean transglutaminase activity level at 4.4 10^-5M in presence of 10 uM retinal relative to retinal alone; assay type: cell-based; set-up: scale not given: the % may be the effect or the level left
[19] = species: Homo sapiens; test: Inhibition of transglutaminase in human keratinocytes assessed as mean transglutaminase activity level at 1.8 10^-7M in presence of 10 uM retinal relative to retinal alone; assay type: cell-based; set-up: scale not given: the % may be the effect or the level left
[20] = species: Homo sapiens; test: Inhibition of transglutaminase in human keratinocytes assessed as mean transglutaminase activity level at 4.89 10^-6M in presence of 10 uM retinal relative to retinal alone; assay type: cell-based; set-up: scale not given: the % may be the effect or the level left
[21] = species: Homo sapiens; test: Inhibition of transglutaminase in human keratinocytes assessed as mean transglutaminase activity level at 6 10^-8M in presence of 10 uM retinal relative to retinal alone; assay type: cell-based; set-up: scale not given: the % may be the effect or the level left
[22] = species: Homo sapiens; test: Inhibition of transglutaminase in human keratinocytes assessed as mean transglutaminase activity level at 2.4 10^-9M in presence of 10 uM retinal relative to retinal alone; assay type: cell-based; set-up: scale not given: the % may be the effect or the level left
[23] = target: T1, Lecithin retinol acyltransferase (Bos taurus) (UniProt Q9BGL2); conditions: at 100 µM;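 note: bovine retinal pigment epithelium microsomes given retinol plus palmitoyl-CoA, 5 min reaction, ester formation read by HPLC, inhibition expressed versus untreated control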
T1 sequence (whole entry): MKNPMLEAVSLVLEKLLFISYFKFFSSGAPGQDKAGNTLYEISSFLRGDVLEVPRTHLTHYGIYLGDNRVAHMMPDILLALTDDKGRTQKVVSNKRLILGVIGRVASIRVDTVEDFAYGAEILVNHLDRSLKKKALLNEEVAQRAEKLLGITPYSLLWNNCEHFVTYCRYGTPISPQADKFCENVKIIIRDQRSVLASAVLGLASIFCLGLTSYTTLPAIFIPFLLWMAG
Description: Inhibition of LRAT in bovine RPE microsomes at 100 uM using retinol substrate in presence of Palmitoyl-CoA incubated for 5 mins by HPLC analysis relative to control

[24] = target: T2, Diacylglycerol O-acyltransferase 1 (Bos taurus) (UniProt Q8MK44); conditions: at 100 µM;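 note: ARAT activity in bovine RPE microsomes with retinol as substrate and dilauroyl phosphatidylcholine present, 5 min incubation, HPLC readout, inhibition expressed versus control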
T2 sequence (whole entry): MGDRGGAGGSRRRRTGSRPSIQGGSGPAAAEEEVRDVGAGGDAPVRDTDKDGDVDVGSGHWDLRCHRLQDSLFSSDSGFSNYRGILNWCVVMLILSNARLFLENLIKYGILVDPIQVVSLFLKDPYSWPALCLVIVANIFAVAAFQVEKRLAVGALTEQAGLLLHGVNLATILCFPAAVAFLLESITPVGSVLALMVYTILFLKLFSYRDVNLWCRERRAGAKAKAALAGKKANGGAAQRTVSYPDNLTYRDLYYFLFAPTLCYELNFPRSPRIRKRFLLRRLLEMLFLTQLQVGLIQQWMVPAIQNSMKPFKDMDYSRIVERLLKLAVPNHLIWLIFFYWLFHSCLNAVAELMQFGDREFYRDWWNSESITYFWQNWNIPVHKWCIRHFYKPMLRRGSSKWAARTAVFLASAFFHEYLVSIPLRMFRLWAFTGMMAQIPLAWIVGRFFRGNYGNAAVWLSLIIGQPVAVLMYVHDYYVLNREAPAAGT
Description: Inhibition of ARAT in bovine RPE microsomes at 100 uM using retinol substrate in presence of dilauroyl-phosphatidyl choline incubated for 5 mins by HPLC analysis relative to control

[25] = species: Homo sapiens; test: Inhibition of transglutaminase in human keratinocytes in presence of retinal relative to retinal alone; assay type: cell-based; conditions: concentration not given here
[26] = species: Homo sapiens; test: Inhibition of transglutaminase in human keratinocytes assessed as mean transglutaminase activity level at 4.22 10^-5M in presence of 10 uM retinal relative to retinal alone; assay type: cell-based; set-up: scale not given: the % may be the effect or the level left
[27] = species: Homo sapiens; test: Inhibition of transglutaminase in human keratinocytes assessed as mean transglutaminase activity level at 4.69 10^-7M in presence of 10 uM retinal relative to retinal alone; assay type: cell-based; set-up: scale not given: the % may be the effect or the level left
[28] = species: Homo sapiens; test: Inhibition of transglutaminase in human keratinocytes assessed as mean transglutaminase activity level at 1.14 10^-3M in presence of 10 uM retinal relative to retinal alone; assay type: cell-based; set-up: scale not given: the % may be the effect or the level left
[29] = species: Homo sapiens; test: Inhibition of transglutaminase in human keratinocytes assessed as mean transglutaminase activity level at 3.8 10^-4M in presence of 10 uM retinal relative to retinal alone; assay type: cell-based; set-up: scale not given: the % may be the effect or the level left
[30] = species: Homo sapiens; test: Inhibition of transglutaminase in human keratinocytes assessed as mean transglutaminase activity level at 6.26 10^-8M in presence of 10 uM retinal relative to retinal alone; assay type: cell-based; set-up: scale not given: the % may be the effect or the level left
[31] = species: Homo sapiens; test: Inhibition of transglutaminase in human keratinocytes assessed as mean transglutaminase activity level at 1.25 10^-8M in presence of 10 uM retinal relative to retinal alone; assay type: cell-based; set-up: scale not given: the % may be the effect or the level left
[32] = species: Homo sapiens; test: Inhibition of transglutaminase in human keratinocytes assessed as mean transglutaminase activity level at 6.9 10^-9M in presence of 10 uM retinal relative to retinal alone; assay type: cell-based; set-up: scale not given: the % may be the effect or the level left
[33] = species: Homo sapiens; test: Inhibition of transglutaminase in human keratinocytes assessed as mean transglutaminase activity level at 1.41 10^-6M in presence of 10 uM retinal relative to retinal alone; assay type: cell-based; set-up: scale not given: the % may be the effect or the level left
[34] = species: Homo sapiens; test: Inhibition of transglutaminase in human keratinocytes assessed as mean transglutaminase activity level at 3.3123 10^-4M in presence of 10 uM retinal relative to retinal alone; assay type: cell-based; set-up: scale not given: the % may be the effect or the level left
[35] = species: Homo sapiens; test: Inhibition of transglutaminase in human keratinocytes assessed as mean transglutaminase activity level at 1.0 10^-9M in presence of 10 uM retinal relative to retinal alone; assay type: cell-based; set-up: scale not given: the % may be the effect or the level left
[36] = species: Homo sapiens; test: Inhibition of transglutaminase in human keratinocytes assessed as mean transglutaminase activity level at 3 10^-5M in presence of 10 uM retinal relative to retinal alone; assay type: cell-based; set-up: scale not given: the % may be the effect or the level left
[37] = species: Homo sapiens; test: Inhibition of transglutaminase in human keratinocytes assessed as mean transglutaminase activity level at 1.65 10^-9M in presence of 10 uM retinal relative to retinal alone; assay type: cell-based; set-up: scale not given: the % may be the effect or the level left
[38] = species: Homo sapiens; test: Inhibition of transglutaminase in human keratinocytes assessed as mean transglutaminase activity level at 3.3 10^-6M in presence of 10 uM retinal relative to retinal alone; assay type: cell-based; set-up: scale not given: the % may be the effect or the level left
[39] = species: Homo sapiens; test: Inhibition of transglutaminase in human keratinocytes assessed as mean transglutaminase activity level at 4.1 10^-8M in presence of 10 uM retinal relative to retinal alone; assay type: cell-based; set-up: scale not given: the % may be the effect or the level left
[40] = species: Homo sapiens; test: Inhibition of transglutaminase in human keratinocytes assessed as mean transglutaminase activity level at 8.2 10^-8M in presence of 10 uM retinal relative to retinal alone; assay type: cell-based; set-up: scale not given: the % may be the effect or the level left
[41] = species: Homo sapiens; test: Inhibition of transglutaminase in human keratinocytes assessed as mean transglutaminase activity level at 1 10^-5M in presence of 10 uM retinal relative to retinal alone; assay type: cell-based; set-up: scale not given: the % may be the effect or the level left
[42] = species: Homo sapiens; test: Inhibition of transglutaminase in human keratinocytes assessed as mean transglutaminase activity level at 3.73 10^-7M in presence of 10 uM retinal relative to retinal alone; assay type: cell-based; set-up: scale not given: the % may be the effect or the level left
[43] = species: Homo sapiens; test: Inhibition of transglutaminase in human keratinocytes assessed as mean transglutaminase activity level at 1.1 10^-6M in presence of 10 uM retinal relative to retinal alone; assay type: cell-based; set-up: scale not given: the % may be the effect or the level left
[44] = species: Homo sapiens; test: Inhibition of transglutaminase in human keratinocytes assessed as mean transglutaminase activity level at 1.23 10^-7M in presence of 10 uM retinal relative to retinal alone; assay type: cell-based; set-up: scale not given: the % may be the effect or the level left

## CCCCC/C=C\C/C=C\CCCCCCCC(=O)O
[1]
  inhibition: 62%
[2]
  Activity: -6%
[3]
  Activity: 106%
[4]
  Activity: 4.4%
[5]
  Activity: 146%
[6]
  Activity: -16.4%
[7]
  Activity: 0.1%
[8]
  Activity: 76.8%
[9]
  Activity: 79.2%
[10]
  Activity: 62.6%
[11]
  IC20: 8.95 ×10⁻⁵ M
[12]
  Activity: 60.2%

## CCCCCCCC/C=C\CCCCCCCC(=O)OC[C@H](COP(=O)([O-])OCC[N+](C)(C)C)OC(=O)CCCCCCCCCCCCCCC
[13]
  Activity: 21%
[14]
  Activity: 120%
[15]
  Activity: 86.7%
[16]
  Activity: 98.8%
[17]
  Activity: 159%
[18]
  Activity: 90.9%
[19]
  Activity: 75.9%
[20]
  Activity: 70.1%
[21]
  Activity: 87.8%
[22]
  Activity: 85.5%

## CCCCCCCCCCCC(=O)NCCO
[23]
  inhibition: 34%
[24]
  inhibition: 13%
[25]
  inhibition: 11%

## O=C(Nc1ccc(Cl)cc1)Nc1ccc(Cl)c(Cl)c1
[26]
  Activity: -11.2%
[27]
  Activity: 15.9%
[28]
  Activity: 36.3%
[29]
  Activity: 3.8%
[30]
  Activity: 18.9%
[31]
  Activity: 100%
[32]
  Activity: 77.6%
[33]
  Activity: -0.3%
[11]
  IC20: 6.18 ×10⁻⁷ M
[34]
  Activity: -3.2%
[35]
  Activity: 54.4%

## CCCCCCCC/C=C\CCCCCCCCCCCCCC(=O)N[C@@H](COP(=O)([O-])OCC[N+](C)(C)C)[C@H](O)/C=C/CCCCCCCCCCCCC
[36]
  Activity: 45%
[13]
  Activity: 26%
[37]
  Activity: 68.4%
[38]
  Activity: 76.4%
[39]
  Activity: 74.6%
[40]
  Activity: 115%
[41]
  Activity: 77.8%
[42]
  Activity: 91.6%
[43]
  Activity: 98.8%
[44]
  Activity: 70%

— ChEMBL document CHEMBL4420071, “Method for treating skin with retinoids and retinoid boosters” (2013)
